Test results published in US4160839A, “Carbamyltriazole insecticides” (priority 1976, dated 1979).

Columns and labels:
[1] = Oral toxicity test on laboratory rats; details: rat, in vivo, in corn oil as additive to the diet, read-out: LD50 (oral lethal dose for 50 percent kill of laboratory rats)
Procedure: (§1) Results obtained with the novel insecticides of this invention at various concentrations of active chemical are tabulated below. The ratings given are for averages of three or more replicates. The oral lethal dose for 50 percent kill of laboratory rats is also recorded in the table. In conducting the toxicity tests on rats, 0.01 g of active chemical per ml in corn oil is employed as an additive to the diet of the animals.

bean aphids (BA) = test: Spray test, bean aphids (BA) on nasturtiums; format: in vivo; details: approx. 48 h after spraying
Procedure: (§2) Three 5 oz paper cups containing Henderson dwarf lima bean plants and one 5 oz paper cup containing Orange Gem nasturtiums, all growing in vermiculite, are placed on a turntable and sprayed to thorough wetness with 25 ml of a solution of the candidate chemical at the appropriate concentration. Nasturtiums were already infested with 50-100 bean aphids (BA). A bean plant in one paper cup was already infested with 50-100 two-spotted mites (TSM). Leaves from the two remaining bean plants are removed following spraying and placed in disposable petri dishes with 5 southern armyworm (SA) larvae in one petri dish, and 5 Mexican bean beetle (MBB) larvae in the other petri dish. The rating is done approximately 48 hours after spraying as follows:
(§3) So as to obtain more meaningful results, all tests are performed at the same time of day, whenever possible, usually in the forenoon. Temperature,illumination and humidity are the same in all tests. Atmospheric pressure is not controlled.
as §1

[2] = tested on: Southern Corn Rootworm (SCR); test: Southern Corn Rootworm (SCR) soil treatment test, root feeding damage on corn; format: in vivo; parameters: scale not given here; details: nine days after treatment
Procedure: Three 5 oz paper cups planted each with one kernel of DeKalb XL-361 corn are treated two days after planting with 10 ml of a 125 ppm solution of the candidate compound. Compounds with high efficacy are treated at lower concentrations. The experiment is a 4×5 factorial in a randomized complete block design with three replications. The tests are evaluated nine days after treatment. The roots are inspected under a dissecting microscope and rated as follows:
as §3, §1

[3] = tested on: southern armyworm (SA) larvae; test: Spray test, southern armyworm (SA) larvae on bean leaves; format: in vivo; details: approx. 48 h after spraying
Procedure: as §2, §3, §1

[4] = tested on: Mexican bean beetle (MBB) larvae; test: Spray test, Mexican bean beetle (MBB) larvae on bean leaves; format: in vivo; details: approx. 48 h after spraying
Procedure: as §2, §3, §1

two-spotted mites (TSM) = test: Spray test, two-spotted mites (TSM) on bean plants; format: in vivo; details: approx. 48 h after spraying
Procedure: as §2, §3, §1

Row | SMILES | LD50 [1] [mg/kg] | BA rating (dead) (bean aphids (BA); 4 ppm) | BA rating (dead) (bean aphids (BA); 15 ppm) | BA rating (dead) (bean aphids (BA); 31 ppm) | BA rating (dead) (bean aphids (BA); 125 ppm) | BA rating (dead) (bean aphids (BA); 250 ppm) | BA rating (dead) (bean aphids (BA); 500 ppm) | SA rating (larvae dead) ([3]; 15 ppm) | SA rating (larvae dead) ([3]; 31 ppm) | SA rating (larvae dead) ([3]; 62 ppm) | SA rating (larvae dead) ([3]; 125 ppm) | SA rating (larvae dead) ([3]; 250 ppm) | SA rating (larvae dead) ([3]; 500 ppm) | MBB rating (larvae dead) ([4]; 15 ppm) | MBB rating (larvae dead) ([4]; 31 ppm) | MBB rating (larvae dead) ([4]; 62 ppm) | MBB rating (larvae dead) ([4]; 125 ppm) | MBB rating (larvae dead) ([4]; 250 ppm) | MBB rating (larvae dead) ([4]; 500 ppm) | TSM rating (dead adults) (two-spotted mites (TSM); 500 ppm) | other results
1 | C=CCSc1nc(C(C)C)nn1C(=O)N(C)C [R=2-propenyl (allyl), R'=isopropyl] | 10 to 50 | 2 (26-50% dead) | 5 (100% dead) | 5 (100% dead) | 5 (100% dead) | 5 (100% dead) | 5 (100% dead) | 0 (no larvae dead) | 0 (no larvae dead) | 0 (no larvae dead) | 0 (no larvae dead) | 0 (no larvae dead) | 5 (100% larvae dead) | 0 (no larvae dead) | 0 (no larvae dead) | 2 (26-50% larvae dead) | 5 (100% larvae dead) | 5 (100% larvae dead) | 5 (100% larvae dead) | 0 (no dead adults) | BA rating (dead) (bean aphids (BA); 2 ppm): 0 (none dead); BA rating (dead) (bean aphids (BA); 8 ppm): 4 (76-99% dead); BA rating (dead) (bean aphids (BA); 62 ppm): 5 (100% dead); SCR Rating (root feeding damage) ([2]; 3 ppm): 3.5
2 | C=CCSc1nc(C2CC2)nn1C(=O)N(C)C [R=2-propenyl (allyl), R'=cyclopropyl] | 5 to 10 | 5 (100% dead) | 5 (100% dead) | 5 (100% dead) | 5 (100% dead) | 5 (100% dead) | 5 (100% dead) | 0 (no larvae dead) | 0 (no larvae dead) | 0 (no larvae dead) | 0 (no larvae dead) | 0 (no larvae dead) | 5 (100% larvae dead) | 0 (no larvae dead) | 0 (no larvae dead) | 0 (no larvae dead) | 2 (26-50% larvae dead) | 5 (100% larvae dead) | 5 (100% larvae dead) | 5 (100% dead adults) | BA rating (dead) (bean aphids (BA); 2 ppm): 4 (76-99% dead); BA rating (dead) (bean aphids (BA); 8 ppm): 5 (100% dead); BA rating (dead) (bean aphids (BA); 62 ppm): 5 (100% dead); SCR Rating (root feeding damage) ([2]; 3 ppm): 3.0; SCR Rating (root feeding damage) ([2]; 6 ppm): 2.5; SCR Rating (root feeding damage) ([2]; 12 ppm): 2.5; SCR Rating (root feeding damage) ([2]; 25 ppm): 3.0; SCR Rating (root feeding damage) ([2]; 50 ppm): 3.5; TSM rating (dead adults) (two-spotted mites (TSM); 15 ppm): 0 (no dead adults); TSM rating (dead adults) (two-spotted mites (TSM); 31 ppm): 0 (no dead adults); TSM rating (dead adults) (two-spotted mites (TSM); 62 ppm): 3 (51-75% dead adults); TSM rating (dead adults) (two-spotted mites (TSM); 125 ppm): 5 (100% dead adults); TSM rating (dead adults) (two-spotted mites (TSM); 250 ppm): 5 (100% dead adults)
3 | C#CCSc1nc(C2CC2)nn1C(=O)N(C)C [R=2-propynyl (propargyl), R'=cyclopropyl] | 10 | 3 (51-75% dead) | 5 (100% dead) | 5 (100% dead) | 5 (100% dead) | 5 (100% dead) | 5 (100% dead) | 0 (no larvae dead) | 0 (no larvae dead) | 0 (no larvae dead) | 2 (26-50% larvae dead) | 4 (76-99% larvae dead) | 5 (100% larvae dead) | 1 (1 -25% larvae dead) | 1 (1 -25% larvae dead) | 3 (51-75% larvae dead) | 5 (100% larvae dead) | 5 (100% larvae dead) | 5 (100% larvae dead) | 5 (100% dead adults) | BA rating (dead) (bean aphids (BA); 2 ppm): 1 (1-25% dead); BA rating (dead) (bean aphids (BA); 8 ppm): 5 (100% dead); BA rating (dead) (bean aphids (BA); 62 ppm): 5 (100% dead); SCR Rating (root feeding damage) ([2]; 25 ppm): 1.3; SCR Rating (root feeding damage) ([2]; 50 ppm): 4.3; SCR Rating (root feeding damage) ([2]; 100 ppm): 4.3; TSM rating (dead adults) (two-spotted mites (TSM); 15 ppm): 0 (no dead adults); TSM rating (dead adults) (two-spotted mites (TSM); 31 ppm): 0 (no dead adults); TSM rating (dead adults) (two-spotted mites (TSM); 62 ppm): 2 (26-50% dead adults); TSM rating (dead adults) (two-spotted mites (TSM); 125 ppm): 4 (76-99% dead adults); TSM rating (dead adults) (two-spotted mites (TSM); 250 ppm): 4 (76-99% dead adults)
4 | C#CCSc1nc(C(C)C)nn1C(=O)N(C)C [R=2-propynyl, R'=isopropyl] | ~50 | 3 (51-75% dead) | 5 (100% dead) | 5 (100% dead) | 5 (100% dead) | 5 (100% dead) | 5 (100% dead) | 0 (no larvae dead) | 0 (no larvae dead) | 0 (no larvae dead) | 3 (51-75% larvae dead) | 5 (100% larvae dead) | 5 (100% larvae dead) | 0 (no larvae dead) | 4 (76-99% larvae dead) | 5 (100% larvae dead) | 5 (100% larvae dead) | 5 (100% larvae dead) | 5 (100% larvae dead) | 0 (no dead adults) | BA rating (dead) (bean aphids (BA); 2 ppm): 0 (none dead); SCR Rating (root feeding damage) ([2]; 12 ppm): 0.3; SCR Rating (root feeding damage) ([2]; 25 ppm): 1.3; SCR Rating (root feeding damage) ([2]; 50 ppm): 2.7
5 | C#CCSc1nc(C(C)(C)C)nn1C(=O)N(C)C [R=2-propynyl, R'=tert.butyl] | > 50 | 5 (100% dead) | 5 (100% dead) | 5 (100% dead) | 5 (100% dead) | 5 (100% dead) | 5 (100% dead) | 0 (no larvae dead) | 0 (no larvae dead) | 0 (no larvae dead) | 2 (26-50% larvae dead) | 5 (100% larvae dead) | 5 (100% larvae dead) | 4 (76-99% larvae dead) | 5 (100% larvae dead) | 5 (100% larvae dead) | 5 (100% larvae dead) | 5 (100% larvae dead) | 5 (100% larvae dead) | 1 (1-25% dead adults) | BA rating (dead) (bean aphids (BA); 8 ppm): 5 (100% dead); BA rating (dead) (bean aphids (BA); 62 ppm): 5 (100% dead); SCR Rating (root feeding damage) ([2]; 6 ppm): 3.5; SCR Rating (root feeding damage) ([2]; 12 ppm): 4.5; MBB rating (larvae dead) ([4]; 4 ppm): 0 (no larvae dead); MBB rating (larvae dead) ([4]; 8 ppm): 0 (no larvae dead)
